Data published in patent US7582601B2, “Use of tryptophan rich peptides” (Campina B.V., priority 2003, dated 2009).

Test system: cholecystokinin (CCK) level in plasma
Assay: Plasma CCK levels in human volunteers after ingestion of test substance in orange juice (RIA)
Format: in vivo
Settings: healthy fasted human volunteers, n = 8
Description: The experiment described below was performed in a double-blind, four period, randomised, cross-over, placebo controlled study.
Eight healthy human volunteers were divided into four groups of two, and were refrained from any food overnight.
The experiment was repeated four times such, that all the eight volunteers eventually obtained aal the four test substances. During the four hours following the ingestion of the orange juice, blood was taken from the test persons at t=0, 30, 60 90, 120, 180 and 240 minutes after ingestion. CCK analysis was carried out using a radio-immunoassay (RIA) kit of Euro-Diagnostica (cat nr. #RB302) according to the instructions of the manufacturer.

N[C@@H](Cc1c[nH]c2ccccc12)C(=O)O [Tryptophan, tryptophan]
Mean CCK levels in plasma (0 minutes after ingestion, oral in 200 ml orange juice (25 g glucose), mean ± spread): 0.64 ± 0.78 pmol/L | Mean CCK levels in plasma (30 minutes after ingestion, oral in orange juice): 1.49 ± 1.04 pmol/L | Mean CCK levels in plasma (60 minutes after ingestion, oral in orange juice): 1.05 ± 1.06 pmol/L | Mean CCK levels in plasma (90 minutes after ingestion, oral in orange juice): 0.83 ± 0.84 pmol/L | Mean CCK levels in plasma (120 minutes after ingestion, oral in orange juice): 0.34 ± 0.11 pmol/L | Mean CCK levels in plasma (180 minutes after ingestion, oral in orange juice): 0.30 ± 0.00 pmol/L | Mean CCK levels in plasma (240 minutes after ingestion, oral in orange juice): 0.30 ± 0.00 pmol/L
